From US7063946B2, “Methods, reagents, kits and apparatus for protein function analysis” (Meso Scale Technologies, LLC., priority 2001, dated 2006)

Columns and labels:
Test in all cases: Kinase inhibitor profiling, autophosphorylation
Format in all cases: biochemical
[1] = biological target: T1, BMX (Homo sapiens, UniProt P51813)
T1 construct: specificity data for proteins generated from a library of eighteen full-length clones; host or cells: rabbit reticulocyte lysate, TnT coupled in vitro transcription/translation (cell-free)
T1 sequence (P51813 1-675): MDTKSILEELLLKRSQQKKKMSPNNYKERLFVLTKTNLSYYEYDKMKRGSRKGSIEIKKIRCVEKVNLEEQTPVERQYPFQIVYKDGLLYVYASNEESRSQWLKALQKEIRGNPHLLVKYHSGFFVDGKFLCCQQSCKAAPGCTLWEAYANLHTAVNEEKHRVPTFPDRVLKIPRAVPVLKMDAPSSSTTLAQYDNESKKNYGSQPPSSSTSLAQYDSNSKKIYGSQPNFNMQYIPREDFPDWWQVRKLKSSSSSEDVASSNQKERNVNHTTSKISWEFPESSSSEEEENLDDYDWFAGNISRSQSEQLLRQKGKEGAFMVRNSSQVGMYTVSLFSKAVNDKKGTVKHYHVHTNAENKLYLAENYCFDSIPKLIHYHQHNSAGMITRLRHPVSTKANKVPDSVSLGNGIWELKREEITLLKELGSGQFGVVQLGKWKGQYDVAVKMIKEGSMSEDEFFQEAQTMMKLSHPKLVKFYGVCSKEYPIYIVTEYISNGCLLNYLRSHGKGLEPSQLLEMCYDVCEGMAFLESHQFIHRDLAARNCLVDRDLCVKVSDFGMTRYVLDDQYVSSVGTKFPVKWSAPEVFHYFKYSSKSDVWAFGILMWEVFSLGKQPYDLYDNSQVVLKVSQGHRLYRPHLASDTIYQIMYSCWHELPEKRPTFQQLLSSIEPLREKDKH
Description: (§1) Proteins were produced from DNA plasmids of Mock Luciferase, Promega, tyrosine kinase clone Spleen Tyrosine kinase (SYK, IMAGE ID# 3870426) and Eph receptor-A7 (EphA7, IMAGE ID# 3991628) (Incyte Genomics, CA) and immobilized on streptavidin or avidin coated NPT-IPR plates as described in the Example 7. To promote autophosphorylation in these immobilized and purified proteins, Mn++ ions were added in a 50 μl reaction containing 5 mM MgCl2, 5 mM MnCl2, 100 μM ATP, 25 mM Tris-HCl buffer pH 7.4, 0.05 mM Na3VO4, 0.004% TritonX-100, 2 mM DTT and EDTA-free protease inhibitor (Roche Molecular Biochemicals). This mixture was incubated with shaking at room temperature overnight to allow autophosphorylation. Following this incubation, wells were washed 2 times with TT-buffer and 2 times with water. Following this step, 50 ng Sulfo-TAG labeled anti-phosphotyrosine in buffer containing 25 mM Tris-HCl buffer pH 7.4, 5 mM MgCl2, 0.05 mM Na3VO4, 0.004% TritonX-100, 2 mM DTT and 0.05% IgG in a final volume of 50 μl was added followed by incubation at room temperature for 45 min. The unbound reagents were removed by one time washing with water, and the TAG label was detected in presence of 150 μl IPR assay buffer (0.4 mM Gly—Gly buffer, pH 7.8, 1 mM EDTA, 0.1 M TPA). The ECL signals were measured using an imaging plate reader.
(§2) Proteins were produced using 100 ng of plasmid DNA Mock (Luciferase, Promega) or tyrosine kinases (Fert2 IMAGE ID # 4485050, FGFR1 IMAGE ID # 4037899, Fgfr2 IMAGE ID # 2654352, Src IMAGE ID # 3156400, BMX IMAGE ID # 3919253, LCK IMAGE ID # 4191610, Epha7 IMAGE ID # 3991628, Ephb4 IMAGE ID # 4013934, Tek IMAGE ID # 3482498, HCK IMAGE ID # 4778819, BTK IMAGE ID # 4478463, CSK IMAGE ID # 4398416, SYK IMAGE ID # 3870426, FGR IMAGE ID # 4419973, PTK2B IMAGE ID # 4339456, FRK(IMAGE ID # 4515877, Kit IMAGE ID # 2644960, Fgfr-4 IMAGE ID # 4239139, NTRK3 IMAGE ID # 4181574, Kdr IMAGE ID # 4238984, Incyte Genomics, CA) and immobilized on SA or avidin coated NPT-IPR plates as described in previous examples. The unbound components of the translation reaction (including any endogenous kinases) were removed by 3 washes with TT-buffer (25 mM Tris-HCl buffer pH 7.4 and 0.004% Triton), two five minutes washes with high-salt wash buffer (25 mM Tris-HCl buffer pH 7.4, 0.004% Triton, 1M NaCl and 5 mM DTT) and 3 washes with TT-buffer. […] The mixture was incubated at room temperature for 10 mm before starting the kinase reaction by adding 25 μl of 200 μM ATP in buffer A. This mixture was incubated with intermittent shaking at room temperature for 2 hours to overnight to allow (a) phosphorylation of the pEY substrate and (b) autophosphorylation of the immobilized kinases. Autophosphorylation and phosphorylation of the pEY was measured as described in Examples 7 and 8.
(§3) The ECL signal in control wells produced by tyrosine kinases was compared to the wells containing inhibitor compounds. The signal produced from Mock was negligible.

[2] = biological target: T2, HCK (Homo sapiens, UniProt P08631)
T2 construct: specificity data for proteins generated from a library of eighteen full-length clones; host or cells: rabbit reticulocyte lysate, TnT coupled in vitro transcription/translation (cell-free)
T2 sequence (P08631 whole entry): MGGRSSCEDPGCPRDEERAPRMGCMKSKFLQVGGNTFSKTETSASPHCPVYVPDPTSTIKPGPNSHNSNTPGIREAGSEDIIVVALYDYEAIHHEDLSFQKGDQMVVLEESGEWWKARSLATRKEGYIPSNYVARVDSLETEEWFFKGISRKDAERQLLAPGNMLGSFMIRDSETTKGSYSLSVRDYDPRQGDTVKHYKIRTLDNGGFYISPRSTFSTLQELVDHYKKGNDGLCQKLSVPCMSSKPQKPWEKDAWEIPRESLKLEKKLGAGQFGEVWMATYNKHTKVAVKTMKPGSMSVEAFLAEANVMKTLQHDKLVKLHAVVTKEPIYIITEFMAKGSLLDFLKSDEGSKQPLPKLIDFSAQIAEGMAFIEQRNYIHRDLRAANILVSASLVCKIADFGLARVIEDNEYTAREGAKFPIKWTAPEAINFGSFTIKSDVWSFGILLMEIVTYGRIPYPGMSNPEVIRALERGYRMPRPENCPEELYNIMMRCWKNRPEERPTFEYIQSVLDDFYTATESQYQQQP
Description: as §1, §2, §3

[3] = biological target: T3, PTK2B (Homo sapiens, UniProt Q14289)
T3 construct: specificity data for proteins generated from a library of eighteen full-length clones; host or cells: rabbit reticulocyte lysate, TnT coupled in vitro transcription/translation (cell-free)
T3 sequence (Q14289 whole entry): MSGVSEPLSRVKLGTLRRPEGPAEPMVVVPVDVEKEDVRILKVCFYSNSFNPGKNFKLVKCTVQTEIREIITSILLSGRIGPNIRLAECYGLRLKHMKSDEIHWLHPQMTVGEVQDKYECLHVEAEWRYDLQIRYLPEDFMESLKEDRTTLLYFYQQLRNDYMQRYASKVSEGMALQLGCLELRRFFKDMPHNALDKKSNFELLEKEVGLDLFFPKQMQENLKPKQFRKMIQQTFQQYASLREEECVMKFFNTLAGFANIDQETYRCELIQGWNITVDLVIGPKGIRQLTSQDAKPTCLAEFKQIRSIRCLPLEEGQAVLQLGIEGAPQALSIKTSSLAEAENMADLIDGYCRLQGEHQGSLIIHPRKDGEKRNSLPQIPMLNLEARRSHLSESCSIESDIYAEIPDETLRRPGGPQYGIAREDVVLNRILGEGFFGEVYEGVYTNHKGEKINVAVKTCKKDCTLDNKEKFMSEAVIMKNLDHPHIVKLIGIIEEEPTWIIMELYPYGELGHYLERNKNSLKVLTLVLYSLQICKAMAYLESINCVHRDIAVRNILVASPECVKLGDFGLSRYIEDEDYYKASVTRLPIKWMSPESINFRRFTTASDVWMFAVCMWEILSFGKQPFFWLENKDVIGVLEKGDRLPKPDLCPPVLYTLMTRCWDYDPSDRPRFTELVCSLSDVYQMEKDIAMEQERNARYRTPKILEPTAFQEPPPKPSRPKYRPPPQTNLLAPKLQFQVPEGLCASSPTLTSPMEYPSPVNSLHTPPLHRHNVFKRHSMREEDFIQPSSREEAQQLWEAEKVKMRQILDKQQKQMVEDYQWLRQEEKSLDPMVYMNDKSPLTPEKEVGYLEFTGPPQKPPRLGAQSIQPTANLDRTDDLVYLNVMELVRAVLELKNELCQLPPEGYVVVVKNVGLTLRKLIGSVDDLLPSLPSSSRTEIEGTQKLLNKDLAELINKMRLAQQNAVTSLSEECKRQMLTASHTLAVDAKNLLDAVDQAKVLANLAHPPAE
Description: as §1, §2, §3

[4] = biological target: T4, SYK (Homo sapiens, UniProt P43405)
T4 construct: autophosphorylation activity from full-length clones Spleen Tyrosine Kinase (SYK) and Eph receptor-A7 (EphA7); host or cells: rabbit reticulocyte lysate, TnT coupled in vitro transcription/translation (cell-free)
Description: as §1, §2, §3

[5] = biological target: T5, Tek (Mus musculus, UniProt Q02858)
T5 construct: specificity data for proteins generated from a library of eighteen full-length clones; host or cells: rabbit reticulocyte lysate, TnT coupled in vitro transcription/translation (cell-free)
T5 sequence (Q02858 23-1122): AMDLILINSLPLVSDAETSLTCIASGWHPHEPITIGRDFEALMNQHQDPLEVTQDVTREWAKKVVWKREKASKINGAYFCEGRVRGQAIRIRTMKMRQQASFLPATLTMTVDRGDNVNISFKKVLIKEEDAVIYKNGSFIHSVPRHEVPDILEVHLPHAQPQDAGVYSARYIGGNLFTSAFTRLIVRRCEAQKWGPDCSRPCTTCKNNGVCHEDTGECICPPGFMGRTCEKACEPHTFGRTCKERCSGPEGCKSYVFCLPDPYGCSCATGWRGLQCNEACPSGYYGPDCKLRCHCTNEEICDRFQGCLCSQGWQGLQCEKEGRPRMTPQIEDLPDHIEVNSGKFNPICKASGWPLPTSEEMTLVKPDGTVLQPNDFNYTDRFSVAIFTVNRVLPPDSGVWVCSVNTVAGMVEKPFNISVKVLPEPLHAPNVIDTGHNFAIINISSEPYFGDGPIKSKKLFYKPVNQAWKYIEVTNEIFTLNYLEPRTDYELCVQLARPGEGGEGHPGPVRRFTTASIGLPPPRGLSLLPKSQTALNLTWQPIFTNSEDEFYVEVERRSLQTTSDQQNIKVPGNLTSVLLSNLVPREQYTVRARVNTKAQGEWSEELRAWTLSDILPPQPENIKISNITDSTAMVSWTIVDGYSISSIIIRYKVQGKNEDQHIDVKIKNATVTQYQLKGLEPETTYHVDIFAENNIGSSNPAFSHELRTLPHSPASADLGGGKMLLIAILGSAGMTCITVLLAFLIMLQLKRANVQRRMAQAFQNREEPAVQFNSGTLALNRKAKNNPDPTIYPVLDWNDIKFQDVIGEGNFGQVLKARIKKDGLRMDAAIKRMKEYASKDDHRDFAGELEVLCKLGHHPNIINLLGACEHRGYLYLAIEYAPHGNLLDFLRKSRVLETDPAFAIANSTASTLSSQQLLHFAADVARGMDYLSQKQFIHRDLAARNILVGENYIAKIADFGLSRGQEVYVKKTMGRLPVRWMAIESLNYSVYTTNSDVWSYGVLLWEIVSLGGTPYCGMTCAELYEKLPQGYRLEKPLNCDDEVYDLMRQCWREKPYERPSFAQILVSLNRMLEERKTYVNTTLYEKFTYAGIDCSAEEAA
Description: as §1, §2, §3

[6] = biological target: T6, Fert2 (Mus musculus, UniProt P70451)
T6 construct: specificity data for proteins generated from a library of eighteen full-length clones; host or cells: rabbit reticulocyte lysate, TnT coupled transcription/translation
T6 sequence (P70451 whole entry): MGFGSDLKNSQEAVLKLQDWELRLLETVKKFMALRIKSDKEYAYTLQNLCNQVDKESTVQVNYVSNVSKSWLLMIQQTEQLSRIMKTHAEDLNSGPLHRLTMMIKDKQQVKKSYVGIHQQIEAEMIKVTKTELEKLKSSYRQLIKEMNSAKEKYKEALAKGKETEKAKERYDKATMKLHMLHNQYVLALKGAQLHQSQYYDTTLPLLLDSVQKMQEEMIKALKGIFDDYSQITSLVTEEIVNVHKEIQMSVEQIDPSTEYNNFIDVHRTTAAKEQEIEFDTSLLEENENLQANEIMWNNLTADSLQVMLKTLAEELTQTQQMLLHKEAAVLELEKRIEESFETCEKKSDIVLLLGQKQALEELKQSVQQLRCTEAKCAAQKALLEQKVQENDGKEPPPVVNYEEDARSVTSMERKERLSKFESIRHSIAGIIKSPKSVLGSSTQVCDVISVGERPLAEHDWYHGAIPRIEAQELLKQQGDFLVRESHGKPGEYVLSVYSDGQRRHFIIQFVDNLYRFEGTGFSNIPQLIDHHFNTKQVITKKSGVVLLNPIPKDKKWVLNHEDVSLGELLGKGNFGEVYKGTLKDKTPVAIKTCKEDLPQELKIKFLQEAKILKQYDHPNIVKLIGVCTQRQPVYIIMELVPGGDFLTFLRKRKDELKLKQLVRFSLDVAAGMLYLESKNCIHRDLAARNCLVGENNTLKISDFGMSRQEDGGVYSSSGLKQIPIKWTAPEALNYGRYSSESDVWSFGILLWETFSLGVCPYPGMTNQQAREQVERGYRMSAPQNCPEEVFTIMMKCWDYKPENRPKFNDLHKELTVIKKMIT
Description: as §1, §2, §3

Molecule | Inhibition specificity towards Autophosphorylation at 10X IC50, BMX [1] | Inhibition specificity towards Autophosphorylation at 10X IC50, HCK [2] | Inhibition specificity towards Autophosphorylation at 10X IC50, PTK2B [3] | Inhibition specificity towards Autophosphorylation at 10X IC50, SYK [4] | Inhibition specificity towards Autophosphorylation at 10X IC50, Tek [5] | Inhibition specificity towards Autophosphorylation at 10X IC50, Fert2 [6]
COC(=O)c1ccc(NCc2cc(O)ccc2O)cc1 [AG-957] | L (low inhibition (“L”=between 50–75% of the activity remaining)) | L (low inhibition (“L”=between 50–75% of the activity remaining)) | L (low inhibition (“L”=between 50–75% of the activity remaining)) | L (low inhibition (“L”=between 50–75% of the activity remaining)) | M (medium inhibition (“M”=between 25 to 50% of the activity remaining)) | 
CC(C)(C)c1cc(C=C(C#N)C#N)cc(Br)c1O [AG-1024] |  |  |  |  | M (medium inhibition (“M”=between 25 to 50% of the activity remaining)) | 
Cc1cc2ncc(-c3ccc(O)c(O)c3)nc2cc1C [AG-1433] | H (high inhibition (“H”=less than 25% of the activity remaining)) | H (high inhibition (“H”=less than 25% of the activity remaining)) | H (high inhibition (“H”=less than 25% of the activity remaining)) | H (high inhibition (“H”=less than 25% of the activity remaining)) | H (high inhibition (“H”=less than 25% of the activity remaining)) | H (high inhibition (“H”=less than 25% of the activity remaining))
COc1c(C=O)c(O)cc2c1C(=O)c1ccccc1C2=O [Damnacanthal] | H (high inhibition (“H”=less than 25% of the activity remaining)) | M (medium inhibition (“M”=between 25 to 50% of the activity remaining)) | M (medium inhibition (“M”=between 25 to 50% of the activity remaining)) | M (medium inhibition (“M”=between 25 to 50% of the activity remaining)) | H (high inhibition (“H”=less than 25% of the activity remaining)) | L (low inhibition (“L”=between 50–75% of the activity remaining))
Erbstatin analog | L (low inhibition (“L”=between 50–75% of the activity remaining)) | L (low inhibition (“L”=between 50–75% of the activity remaining)) | L (low inhibition (“L”=between 50–75% of the activity remaining)) | L (low inhibition (“L”=between 50–75% of the activity remaining)) | L (low inhibition (“L”=between 50–75% of the activity remaining)) | L (low inhibition (“L”=between 50–75% of the activity remaining))
